Experimental data published in patent US20020081266A1, “Spray dried powders for pulmonary or nasal administration” (Norton Healthcare Ltd., priority 1999, published 2002).

Legend:
[1] = Scanning electron microscopy (SEM) particle diameter; assay type: physicochemical; settings: for Particle diameters by SEM: spray dried from ethanolic solution
From the text: Scanning Electron Microscopy (SEM)
The scanning electron microscope used was the Hitachi S-3500N variable pressure scanning electron microscope. Samples were mounted and sputtered with gold spray for SEM.
The scanning electron microscope used was the Hitachi S-3500N variable pressure scanning electron microscope. Samples were mounted on aluminium stubs and spluttered with gold spray for SEM.

[2] = starting material
Experimental: Thermogravimetric Analysis (TGA)
Thermogravimetric analysis was carried out using a Mettler TG 50 linked to a Mettler MT5 balance. Data was processed using Mettler Toledo STAR software Version 5.1 with a Solaris operating system. Sample weights were between 5 and 10 mg and analysis was carried out under nitrogen purge. The scans were run from 30 to 350° C. at a heating rate of 10° C./minute. Two TGA scans were obtained for each system.

Molecule | Average particle diameter by SEM ([1]; starting material, not spray dried) | Temperature from which TGA mass loss due to degradation occurs [2] [°C] | Particle diameters by SEM [1] [μm]
COc1ccc(C[C@@H](C)NC[C@H](O)c2ccc(O)c(NC=O)c2)cc1.COc1ccc(C[C@@H](C)NC[C@H](O)c2ccc(O)c(NC=O)c2)cc1.O=C(O)/C=C/C(=O)O [Formoterol fumarate, formoterol fumarate] | 0.5-5 μm | ≥ 150 | –
salbutamol sulphate | – | – | < 3
CC(C)[N+]1(C)[C@@H]2CC[C@H]1CC(OC(=O)C(CO)c1ccccc1)C2.[Br-] (stereo partly shown) [Ipratropium bromide, ipratropium bromide] | – | – | ≥ 60
